# Data as given in publication PMC5443783, “Prostaglandin E2 glyceryl ester is an endogenous agonist of the nucleotide receptor P2Y6” (Scientific Reports, 2017).
# Values joined by “and” are separate entries in the source; they are usually repeats but may differ in a detail not shown here. Equal values may be shown once.
# Key:
# P2Y6 [1] = molecular target: T1, P2Y6 (Homo sapiens, UniProt Q15077); assay: cAMP-inhibition assay in P2RY6-transfected HEK293 cells; format: cell-based; design: expressed in transfected cells; host or cells: HEK293; details: P2RY6-transfected HEK293, 2.5 µM forskolin, Fig. 3c; read-out: EC50, suppression of cAMP formation
# T1 sequence (Q15077 whole entry): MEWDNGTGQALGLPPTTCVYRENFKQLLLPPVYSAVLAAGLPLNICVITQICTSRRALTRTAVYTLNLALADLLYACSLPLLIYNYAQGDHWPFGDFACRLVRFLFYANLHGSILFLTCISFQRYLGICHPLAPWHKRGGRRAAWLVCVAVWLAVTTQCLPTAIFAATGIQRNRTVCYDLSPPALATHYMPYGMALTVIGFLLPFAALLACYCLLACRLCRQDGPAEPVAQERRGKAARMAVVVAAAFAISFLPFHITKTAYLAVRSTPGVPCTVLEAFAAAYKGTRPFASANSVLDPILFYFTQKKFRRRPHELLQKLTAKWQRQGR
# Procedure: After transfection (72 h), cells were washed once with DMEM/F12 containing 1 mM 3-isobutyl-methyl-xanthine (IBMX) followed by incubation in the presence of the indicated compounds and forskolin (2.5 µM) for 15 min at 37 °C. The final concentration of DMSO was 1%. Cells were lysed in 25 μl lysis buffer (5 mM HEPES; 0.1% BSA; 0.3% Tween20; 1 mM IBMX; pH 7.4) and kept frozen at −20 °C until measurement. To measure cAMP concentration, the AlphaScreen cAMP assay kit (PerkinElmer Life Sciences) was used according to the manufacturer’s protocol.
# P2Y6 [2] = molecular target: T1, P2Y6; assay: Intracellular Ca2+ measurement in HEK293 cells transfected with P2RY6; format: cell-based; design: expressed in transfected cells; host or cells: HEK293; details: for effect on cytosolic Ca2+ levels: HEK293 transiently transfected with P2RY6, concentration-dependent
# Procedure: (§1) RAW264.7 cells were grown in DMEM supplemented with 10% FBS, A7r5 (rat […]) cells in DMEM with 10% FBS, and A431 (human squamous carcinoma) cells in RPMI supplemented with 10% FBS. All cell lines were grown at 37 °C in a humidified 5% CO2 incubator. For functional assays, receptor constructs were heterologously expressed in human embryonic kidney (HEK293) cells upon transient or stable transfection. Cells were grown in DMEM/F12 supplemented with 10% FBS, 100 units/ml penicillin, and 100 µg/ml streptomycin. For the cAMP-inhibition assay, ERK1/2 phosphorylation assay, and Ca^2+ mobilization assay, cells were split into 96-well plates (2.0 × 10^4 cells/well) and transfected with 250 ng vector construct using MACSfectin™ (Miltenyi Biotec, Germany) according to manufacturer’s protocol. Empty vector (mock) served as the negative control. For siRNA experiments, cells were seeded in 6-well plates (4.0 × 10^5 and 6.0 × 10^5 cells/well for RAW264.7 and H1819, respectively). RAW264.7 and H1819 cells were transfected with 150 pMol of mP2RY6 siRNA and hP2RY6 siRNA (Santa Cruz Biotechnology, USA), respectively, using Viromer® Blue (Lipocalyx, Germany). As a negative control, control siRNA-A (Santa Cruz Biotechnology, USA) was used. FITC-labelled siRNA served as a transfection control.
# To generate a cell line stably expressing P2Y6, HEK293 cells were seeded in 6-well plates (7.5 × 10^5 cells/well) and transfected with 3 µg vector using MACSfectin™ as transfection regent according to the manufacturer’s protocol. The pIRES-eGFP vector served as negative control. Stably transfected HEK293 cells were cultured in the presence of geneticin (500 µg/ml) for selection.
# (§2) For fluorometric measurements of intracellular Ca^2+ levels with the FlexStationII instrument (Molecular Devices), RAW264.7 and H1819 cells were seeded into 96-well plates (3.0 × 10^4 cells/well) 24 h prior to assay. Ca^2+ measurements with transiently transfected HEK293 cells were performed 48 h after transfection. Cells were loaded with 200 µl Calcium 5 reagent (Explorer Kit, Molecular Devices, USA) for 60 min at 37 °C, and the assay was performed as described. Agonists and inhibitors were solved in DMSO (100x) and diluted […] in 96-well compound plates containing HBSS. 50 µl of compound solution were added to the assay plate resulting in final concentration of 1% DMSO. Fold-response was calculated by RFUmax − RFUmin (ligand)/RFUmax − RFUmin (vehicle). EC50 values were calculated by using GraphPad Prism6 software (GraphPad, USA).
# P2Y12 = molecular target: T2, P2Y12 (Homo sapiens, UniProt Q9H244); assay: Intracellular Ca2+ release in HEK293 cells transfected with P2RY12; format: cell-based; details: HEK293 transfected with P2RY12, Fig. 3f
# T2 construct: expressed in transfected cells; host or cells: HEK293
# T2 sequence (Q9H244 whole entry, species assumed): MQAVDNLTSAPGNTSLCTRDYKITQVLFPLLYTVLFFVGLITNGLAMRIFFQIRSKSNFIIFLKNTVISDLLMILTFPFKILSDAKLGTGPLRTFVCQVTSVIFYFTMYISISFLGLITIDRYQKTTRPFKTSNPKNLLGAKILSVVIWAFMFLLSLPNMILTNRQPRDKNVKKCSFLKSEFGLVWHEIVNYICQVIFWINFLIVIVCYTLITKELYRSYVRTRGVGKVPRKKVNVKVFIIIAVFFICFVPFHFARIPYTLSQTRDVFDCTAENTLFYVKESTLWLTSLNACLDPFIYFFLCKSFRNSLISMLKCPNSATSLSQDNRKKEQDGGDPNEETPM
# Procedure: as §2
# [3] = system: prostanoid receptors EP1–4, DP, FP, TP, or IP; design: method as in PMID 18297109, PMID 14766978, PMID 14757851; details: cited from earlier work
# [4] = molecular target: T3, cannabinoid receptor 2 (Cnr2) (Homo sapiens, UniProt P34972); assay: Intracellular Ca2+ measurement in CNR2-transfected HEK293 cells; format: cell-based; details: 200 nM of 2-AG, Fig. 2c
# T3 construct: expressed in transfected cells; host or cells: HEK293
# T3 sequence (P34972 whole entry): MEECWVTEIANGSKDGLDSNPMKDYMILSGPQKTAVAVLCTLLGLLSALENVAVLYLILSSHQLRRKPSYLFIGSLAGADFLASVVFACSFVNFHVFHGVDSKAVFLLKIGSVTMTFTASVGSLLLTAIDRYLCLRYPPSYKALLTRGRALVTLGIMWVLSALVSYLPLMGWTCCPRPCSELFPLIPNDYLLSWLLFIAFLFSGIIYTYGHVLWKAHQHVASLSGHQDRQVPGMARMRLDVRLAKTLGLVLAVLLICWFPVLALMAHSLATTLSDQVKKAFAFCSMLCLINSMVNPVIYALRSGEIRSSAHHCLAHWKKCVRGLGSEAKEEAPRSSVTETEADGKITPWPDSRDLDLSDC
# Procedure: as §1, with “RAW264.7 and H1819 cells were transfected with 150 pMol of mP2RY6 siRNA and hP2RY6 siRNA (Santa Cruz Biotechnology, USA), respectively, using Viromer® Blue (Lipocalyx, Germany). As a negative control, control siRNA-A (Santa Cruz Biotechnology, USA) was used. FITC-labelled siRNA served as a transfection control.” left out
# For fluorometric measurements of intracellular Ca^2+ levels with the FlexStationII instrument (Molecular Devices), RAW264.7 and H1819 cells were seeded into 96-well plates (3.0 × 10^4 cells/well) 24 h prior to assay. […] Fold-response was calculated by RFUmax − RFUmin (ligand)/RFUmax − RFUmin (vehicle). EC50 values were calculated by using GraphPad Prism6 software (GraphPad, USA).
# 78 orphan GPCRs = assay: PathHunter β-Arrestin Orphan GPCR cell line panel, whole panel; format: cell-based; details: β-arrestin recruitment
# Source text: For screening orphan GPCRs as possible targets for PGE2-G, the PathHunter® β-Arrestin assay (DiscoveRx Co., USA) was used. It monitors the activation of a GPCR by utilizing an enzyme fragment complementation assay with β-galactosidase as the functional reporter. Briefly, the enzyme is split into two complementary portions expressed as fusion proteins in the cell. The enzyme acceptor is fused to β2-arrestin, and the ProLink donor peptide is fused to the GPCR of interest. Upon GPCR stimulation, β2-arrestin is recruited to the receptor, bringing the two fragments of β-galactosidase together. This generates an active enzyme that can convert a chemiluminescent substrate, generating a signal detectable on a standard microplate reader (see manufacturer’s instructions). In total, 78 GPCRs, previously considered orphan and individually transfected into cells, were screened by DiscoveRx (Supplementary Table S1). The percentage activity given in the results is calculated using the following formula: % activity = 100% × (mean RLU of test sample - mean RLU of vehicle control)/mean RLU of vehicle control).
# RAW264.7 cells = details: RAW264.7 and H1819 cell lines; read-out: EC50, Ca2+ response; cited from earlier work
# [5] = HEK293 transiently transfected with P2RY6, Fig. 2b, read-out: EC50, intracellular Ca2+
EC50 (P2Y6 [1]) [nM],"EC50 (P2Y6 [2]; HEK293 stably transfected with P2RY6, Fig. 5, read-out: EC50, Ca2+ mobilization assay) [nM]",Compound,EC50 (P2Y6 [2]; [5]),effect on cytosolic Ca2+ levels (P2Y6 [2]),Ca2+ release (P2Y12),activation of known prostanoid receptors [3],effect on intracellular Ca2+ [4],response of orphan GPCRs (78 orphan GPCRs),"ratio of EC50 values UDP / PGE2-G (P2Y6 [2]; Ca2+ measurements in transfected HEK cells, Fig. 2b)",EC50 (RAW264.7 cells) [nM]
3.6 ± 0.3,57.1 ± 2.5,O=c1ccn([C@@H]2O[C@H](COP(=O)(O)OP(=O)(O)O)[C@@H](O)[C@H]2O)c(=O)[nH]1 [UDP],78.3 ± 6.7 nM,increased the cytosolic Ca^2+ levels,,,,,,
,,Prostaglandin E2 glyceryl ester [PGE2-G],~0.001 nM and 0.0012 nM,increased the cytosolic Ca^2+ levels,not and neither P2Y1 nor P2Y12 showed activity,does not efficiently activate,did not,None of the tested receptors demonstrated a positive response,"~ 65,000",~0.001
